Patent US8765746B2 (Millennium Pharmaceuticals, Inc., priority 2010, dated 2014)

Experiments:
Type in all cases: biochemical
PI3Kbeta = target: T1, PI3Kbeta (Homo sapiens, UniProt P42338); experiment: Human PI3K beta enzyme assay (HTRF, as for PI3K alpha); settings: at 1.11 μM; for inhibition at 1.11 µM: read-out: PI3Kbeta % inh
T1 construct: His (N); host or cells: SF9 insect cells (baculovirus)
Text: (§1) The catalytic subunits of PI3Ks are cloned into either pDEST8(p110 alpha) or pDEST10(p110beta, p110delta, and p110gamma) as N-terminal His tagged fusion proteins using the Gateway system (Invitrogen, catalog#11804-010 for pDEST8 and 11806-015 for pDEST10). The sequences are verified before recombinant protein expression using the Baculovirus Expression System with Gateway® Technology. The accession numbers for the subunits are as follows:
(§2) The regulatory subunits of PI3Ks are cloned into pDEST8 as un-tagged protein using the Gateway system (Catalog#11804-010). The sequences are verified before recombinant protein expression using the Baculovirus Expression System with Gateway® Technology. The accession numbers for the subunits are as follows:
(§3) For expression of the p110 complexes, the p85 (MOI of 4) is co-infected with p110 alpha, beta, and delta respectively (1MOI) in SF9 cells and harvested at 60 hours post co-infection. P110 gamma was infected at 1 MOI and harvested at 60 hours post infection.
(§4) For purification, PI3Ks are purified by Ni-NTA Agarose (Qiagen #30250) followed by Mono Q 10/100 GL (Ge Healthcare #17-5167-01). VPS34 is purified by Glutathione Sepharose 4 Fast Flow (GE Healthcare #17-5132-03) followed by HiTrap Q (GE Healthcare #17-1153-01).
(§5) 0.5 uL compounds in DMSO are added to wells of a 384 well microtitre plate (Corning 3575). At room temperature: 10 ul PI3K reaction buffer (50 mM Hepes, 5 mM DTT, 150 mM NaCl, 10 mM beta-glycerophosphate, 10 mM MgCl2, 0.25 mM sodium cholate and 0.001% CHAPS, pH 7.00) containing ATP (25 uM, Promega) is added followed immediately by 10 ul PI3K reaction buffer containing di-C8 PI(4,5)P2 (3.5 uM, CellSignals) and PI3Kalpha (0.4875 nM, Millennium Protein Sciences Group) and the mixture is incubated with shaking at room temperature for 30 minutes. Then 5 ul PI3K stop mix (50 mM Hepes, 5 mM DTT, 150 mM NaCl, 0.01% Tween-20, 15 mM EDTA and 25 nM biotin-PI(3,4,5)P3 (Echelon) is added to quench the reaction followed immediately by addition of 5 ul HTRF detection mix (50 mM Hepes, 5 mM DTT, 150 mM NaCl, 0.01% Tween-20, 40 mM KF, 10 nM GST:GRP-1 PH domain (Millennium Protein Sciences Group), 15 nM Streptavidin-XL (CisBio) and 0.375 nM anti-GST Eu++ antibody (CisBio) at pH 7.00). The plates are then incubated for 1 hour at room temperature with shaking and then read on a BMG PheraStar Plus reader.
(§6) 2) Human PI3K beta, delta and gamma isoforms are tested using the procedure described for PI3K alpha above but with the following changes: PI3K beta (5.25 nM), PI3K delta (0.75 nM) and PI3K gamma (5 nM). All isoforms supplied by Millennium Protein Science Group.

PI3Kalpha = target: T2, PI3Kalpha (Homo sapiens, UniProt P42336); experiment: Human PI3Kα enzyme assay (HTRF); settings: for inhibition at 1.11 µM: read-out: PI3Kalpha % inh; for PI3Kalpha % inh: at 1.11 μM
T2 construct: His (N); host or cells: SF9 insect cells (baculovirus)
T2 sequence (P42336 whole entry): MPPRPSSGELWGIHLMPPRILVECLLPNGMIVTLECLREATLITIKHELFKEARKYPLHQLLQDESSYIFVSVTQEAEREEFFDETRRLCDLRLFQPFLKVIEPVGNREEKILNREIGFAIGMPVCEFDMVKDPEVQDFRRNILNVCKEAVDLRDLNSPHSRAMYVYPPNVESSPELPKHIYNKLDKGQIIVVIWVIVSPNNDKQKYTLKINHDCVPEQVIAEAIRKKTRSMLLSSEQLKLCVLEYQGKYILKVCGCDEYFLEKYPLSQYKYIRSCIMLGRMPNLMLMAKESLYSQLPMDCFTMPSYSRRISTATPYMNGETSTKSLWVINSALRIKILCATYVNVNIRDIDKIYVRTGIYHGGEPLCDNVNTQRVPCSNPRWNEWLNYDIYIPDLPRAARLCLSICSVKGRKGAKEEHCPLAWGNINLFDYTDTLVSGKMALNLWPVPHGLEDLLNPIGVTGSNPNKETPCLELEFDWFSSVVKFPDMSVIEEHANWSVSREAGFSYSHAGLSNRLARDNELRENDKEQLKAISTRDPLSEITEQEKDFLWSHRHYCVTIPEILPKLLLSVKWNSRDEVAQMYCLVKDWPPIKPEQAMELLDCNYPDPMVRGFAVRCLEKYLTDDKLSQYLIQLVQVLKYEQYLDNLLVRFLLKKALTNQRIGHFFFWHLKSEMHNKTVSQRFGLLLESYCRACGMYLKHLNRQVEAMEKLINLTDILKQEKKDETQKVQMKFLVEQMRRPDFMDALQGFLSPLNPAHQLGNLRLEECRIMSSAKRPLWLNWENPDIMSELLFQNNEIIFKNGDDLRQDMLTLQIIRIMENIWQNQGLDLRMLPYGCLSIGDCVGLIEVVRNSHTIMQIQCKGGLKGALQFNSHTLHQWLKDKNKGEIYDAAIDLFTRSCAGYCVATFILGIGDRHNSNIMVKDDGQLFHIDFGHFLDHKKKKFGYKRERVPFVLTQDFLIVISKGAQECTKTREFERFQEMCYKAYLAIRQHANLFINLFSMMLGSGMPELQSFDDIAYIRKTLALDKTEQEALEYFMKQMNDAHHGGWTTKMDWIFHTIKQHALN
T2 sequence (P27986 whole entry partner): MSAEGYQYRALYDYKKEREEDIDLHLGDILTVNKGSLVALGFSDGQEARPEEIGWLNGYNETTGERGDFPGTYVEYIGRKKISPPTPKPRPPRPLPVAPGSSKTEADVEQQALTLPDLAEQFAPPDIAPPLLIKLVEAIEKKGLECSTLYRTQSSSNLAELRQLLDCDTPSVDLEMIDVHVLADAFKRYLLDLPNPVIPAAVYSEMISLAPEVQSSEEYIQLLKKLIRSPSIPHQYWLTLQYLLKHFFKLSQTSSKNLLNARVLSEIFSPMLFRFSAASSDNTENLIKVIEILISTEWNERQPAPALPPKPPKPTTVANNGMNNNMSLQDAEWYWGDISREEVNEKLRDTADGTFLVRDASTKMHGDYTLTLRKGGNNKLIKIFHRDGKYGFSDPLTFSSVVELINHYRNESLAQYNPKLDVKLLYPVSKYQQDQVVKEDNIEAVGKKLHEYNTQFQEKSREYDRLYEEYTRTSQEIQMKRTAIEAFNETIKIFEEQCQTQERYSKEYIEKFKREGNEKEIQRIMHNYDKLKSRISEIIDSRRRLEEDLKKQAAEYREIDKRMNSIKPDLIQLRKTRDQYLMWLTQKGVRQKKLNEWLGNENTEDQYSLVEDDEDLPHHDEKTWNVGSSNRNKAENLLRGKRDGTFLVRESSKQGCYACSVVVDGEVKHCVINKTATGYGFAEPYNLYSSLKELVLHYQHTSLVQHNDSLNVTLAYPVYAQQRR
Text: as §1, §2, §3, §4
1) Human PI3Kα enzyme assay method
as §5

PI3Kgamma = target: T3, PI3Kgamma (Homo sapiens, UniProt P48736); experiment: Human PI3K gamma enzyme assay (HTRF, as for PI3K alpha); settings: for inhibition at 1.11 µM: read-out: PI3Kgamma % inh
T3 construct: His (N); host or cells: SF9 insect cells (baculovirus)
T3 sequence (P48736 whole entry): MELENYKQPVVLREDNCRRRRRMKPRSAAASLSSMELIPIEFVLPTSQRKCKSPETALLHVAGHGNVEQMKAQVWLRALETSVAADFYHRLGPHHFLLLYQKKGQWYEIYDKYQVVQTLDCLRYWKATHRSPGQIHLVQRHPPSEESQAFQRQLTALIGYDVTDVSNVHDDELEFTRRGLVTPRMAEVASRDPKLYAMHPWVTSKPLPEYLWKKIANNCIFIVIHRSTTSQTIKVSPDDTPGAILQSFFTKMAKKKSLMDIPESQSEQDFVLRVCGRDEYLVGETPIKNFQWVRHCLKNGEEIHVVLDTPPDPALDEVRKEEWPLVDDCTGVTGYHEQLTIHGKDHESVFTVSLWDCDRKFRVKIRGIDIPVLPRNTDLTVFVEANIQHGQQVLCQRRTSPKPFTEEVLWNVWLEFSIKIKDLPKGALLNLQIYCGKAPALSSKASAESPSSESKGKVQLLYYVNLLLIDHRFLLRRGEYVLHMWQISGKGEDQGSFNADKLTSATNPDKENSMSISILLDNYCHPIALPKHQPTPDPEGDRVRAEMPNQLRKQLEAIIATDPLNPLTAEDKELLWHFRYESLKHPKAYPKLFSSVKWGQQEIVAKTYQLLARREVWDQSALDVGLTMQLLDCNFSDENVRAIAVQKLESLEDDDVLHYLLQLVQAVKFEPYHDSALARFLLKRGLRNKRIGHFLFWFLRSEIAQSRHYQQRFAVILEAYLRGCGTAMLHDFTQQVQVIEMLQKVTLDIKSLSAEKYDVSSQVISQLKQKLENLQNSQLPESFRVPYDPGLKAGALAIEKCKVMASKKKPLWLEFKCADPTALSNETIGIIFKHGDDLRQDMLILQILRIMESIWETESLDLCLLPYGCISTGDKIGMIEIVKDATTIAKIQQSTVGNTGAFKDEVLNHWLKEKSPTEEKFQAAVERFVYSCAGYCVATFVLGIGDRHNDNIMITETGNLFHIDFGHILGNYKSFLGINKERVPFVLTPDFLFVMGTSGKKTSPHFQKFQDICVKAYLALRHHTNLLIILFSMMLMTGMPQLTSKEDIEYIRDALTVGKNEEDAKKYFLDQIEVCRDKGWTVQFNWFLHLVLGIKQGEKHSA
Text: as §1, §2, §3, §4, §5, §6

PI3Kdelta = target: T4, PI3Kdelta (Homo sapiens, UniProt O00329); experiment: Human PI3K delta enzyme assay (HTRF, as for PI3K alpha); settings: for inhibition at 1.11 µM: read-out: PI3Kdelta % inh
T4 construct: His (N); host or cells: SF9 insect cells (baculovirus)
T4 sequence (O00329 whole entry): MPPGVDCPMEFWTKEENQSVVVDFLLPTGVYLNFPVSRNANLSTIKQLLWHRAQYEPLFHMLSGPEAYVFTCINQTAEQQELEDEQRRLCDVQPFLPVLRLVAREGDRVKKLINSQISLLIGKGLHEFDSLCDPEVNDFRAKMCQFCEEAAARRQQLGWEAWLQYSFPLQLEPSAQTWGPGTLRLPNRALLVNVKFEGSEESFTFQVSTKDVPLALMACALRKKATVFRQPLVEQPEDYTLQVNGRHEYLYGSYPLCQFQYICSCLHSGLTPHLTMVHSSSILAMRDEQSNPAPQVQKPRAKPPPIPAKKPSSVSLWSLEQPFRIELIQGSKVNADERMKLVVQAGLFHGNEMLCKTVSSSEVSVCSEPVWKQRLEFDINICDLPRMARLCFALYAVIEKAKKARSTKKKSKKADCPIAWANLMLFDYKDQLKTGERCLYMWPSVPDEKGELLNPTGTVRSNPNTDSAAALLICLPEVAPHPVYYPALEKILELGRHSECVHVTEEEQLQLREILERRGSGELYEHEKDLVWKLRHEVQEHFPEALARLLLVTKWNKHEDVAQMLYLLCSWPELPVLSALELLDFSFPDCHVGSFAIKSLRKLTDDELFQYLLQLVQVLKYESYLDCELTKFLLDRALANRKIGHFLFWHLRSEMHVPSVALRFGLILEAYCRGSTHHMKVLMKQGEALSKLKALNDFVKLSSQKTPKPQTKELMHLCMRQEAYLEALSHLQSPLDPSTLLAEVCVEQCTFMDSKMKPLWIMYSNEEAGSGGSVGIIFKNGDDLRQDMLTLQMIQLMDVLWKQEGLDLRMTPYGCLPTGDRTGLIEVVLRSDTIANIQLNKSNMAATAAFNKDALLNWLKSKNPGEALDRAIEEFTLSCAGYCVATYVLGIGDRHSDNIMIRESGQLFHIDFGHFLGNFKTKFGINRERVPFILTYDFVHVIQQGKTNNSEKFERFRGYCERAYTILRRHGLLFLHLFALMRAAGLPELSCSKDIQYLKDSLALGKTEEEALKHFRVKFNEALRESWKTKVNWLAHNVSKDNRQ
T4 sequence (P27986 whole entry partner): as the sequence (P27986 whole entry partner) above
Text: as §1, §2, §3, §4, §5, §6

T1 sequence (P42338 whole entry): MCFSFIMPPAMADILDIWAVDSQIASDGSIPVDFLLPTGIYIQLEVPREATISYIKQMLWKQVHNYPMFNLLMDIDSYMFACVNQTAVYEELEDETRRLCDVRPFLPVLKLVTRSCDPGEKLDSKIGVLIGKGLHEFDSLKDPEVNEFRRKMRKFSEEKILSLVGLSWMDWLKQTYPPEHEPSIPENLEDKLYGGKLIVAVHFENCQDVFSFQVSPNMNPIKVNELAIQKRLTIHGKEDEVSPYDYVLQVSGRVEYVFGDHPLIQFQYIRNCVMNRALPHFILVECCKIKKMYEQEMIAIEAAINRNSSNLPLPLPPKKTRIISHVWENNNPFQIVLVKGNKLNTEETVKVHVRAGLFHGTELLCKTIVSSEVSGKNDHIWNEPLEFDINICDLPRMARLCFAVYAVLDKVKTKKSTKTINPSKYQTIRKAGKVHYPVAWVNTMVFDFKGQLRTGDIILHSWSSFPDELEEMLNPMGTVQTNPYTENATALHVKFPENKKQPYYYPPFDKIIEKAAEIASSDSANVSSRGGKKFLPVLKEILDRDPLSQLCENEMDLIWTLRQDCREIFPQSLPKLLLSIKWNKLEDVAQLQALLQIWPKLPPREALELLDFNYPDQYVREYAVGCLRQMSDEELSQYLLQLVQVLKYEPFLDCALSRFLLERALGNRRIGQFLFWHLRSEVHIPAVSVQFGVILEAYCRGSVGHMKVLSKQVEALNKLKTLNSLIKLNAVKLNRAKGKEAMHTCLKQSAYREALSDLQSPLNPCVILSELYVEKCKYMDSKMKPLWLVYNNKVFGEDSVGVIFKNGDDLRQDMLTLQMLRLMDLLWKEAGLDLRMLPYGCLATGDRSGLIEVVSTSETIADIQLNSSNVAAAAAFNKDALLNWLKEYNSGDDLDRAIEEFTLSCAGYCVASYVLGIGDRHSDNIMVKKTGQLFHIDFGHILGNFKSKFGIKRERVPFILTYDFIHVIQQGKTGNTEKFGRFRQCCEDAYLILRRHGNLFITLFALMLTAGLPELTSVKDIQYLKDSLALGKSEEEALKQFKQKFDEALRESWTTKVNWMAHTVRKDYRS
T1 sequence (P27986 whole entry partner): as the sequence (P27986 whole entry partner) above

Structure (SMILES) | inhibition at 1.11 µM (PI3Kbeta) | inhibition at 1.11 µM (PI3Kalpha) | inhibition at 1.11 µM (PI3Kgamma) | inhibition at 1.11 µM (PI3Kdelta) | PI3Kbeta % inh (PI3Kbeta) | PI3Kalpha % inh (PI3Kalpha) | other results
NC(=O)[C@@H]1NC(=O)c2sc(N3CCOCC3)cc2[C@H]1c1ccc(Cl)c(Cl)c1 (relative stereo) [Compound 146, rel-(4R,5R)-4-(3,4-dichlorophenyl)-2-(morpholin-4-yl)-7-oxo-4,5,6,7-tetrahydrothieno[2,3-c]pyridine-5-carboxamide] | 107% | 40.4% | 50.7% | 99.7% | – | – | –
O=C1N[C@@H](CO)[C@H](c2ccc(Cl)c(Cl)c2)c2cc(N3CCOCC3)sc21 (relative stereo) [Compound 192, rel-(4R,5R)-4-(3,4-dichlorophenyl)-5-(hydroxymethyl)-2-(morpholin-4-yl)-5,6-dihydrothieno[2,3-c]pyridin-7(4H)-one] | 106% | 39.6% | 52.9% | 105% | – | – | –
O=C1CC(c2ccc3ccccc3c2)c2cc(N3CCOCC3)sc21 (stereo not shown) [Compound 119] | 107% | 42.4% | 60.3% | 99.8% | – | – | –
CNC(=O)[C@@H]1NC(=O)c2sc(N3CCOCC3)cc2[C@H]1c1ccc(Cl)cc1 [Compound 123] | – | – | 10.4% | 49.6% | 101.46% | 32.28% | –
O=C1NCC(c2ccc(Cl)cc2)c2nc(N3CCOCC3)sc21 (stereo not shown) [Compound 124] | 93.5% | 12.2% | 9.41% | 59.2% | – | – | –
O=C1N[C@@H](CO)[C@H](c2ccc(Cl)cc2)c2cc(N3CCOCC3)sc21 [Compound 133] | 110% | 35% | 30.7% | 102% | – | – | –
CCCOC(=O)[C@@H]1NC(=O)c2sc(N3CCOCC3)cc2[C@H]1c1ccc(Cl)cc1 [Compound 136] | – | – | – | – | 87.47% | 17.00% | PI3Kgamma % inh (PI3Kgamma; at 1.11 μM): 4.11%; PI3Kdelta % inh (PI3Kdelta; at 1.11 μM): 35.35%
O=C1NCCC(c2ccc(Cl)cc2)c2cc(N3CCOCC3)sc21 (stereo not shown) [Compound 148] | – | – | 13.2% | 98.2% | 118.63% | 24.59% | –
N#Cc1c(N2CCOCC2)sc2c1C(c1ccc(Cl)cc1)CCNC2=O (stereo not shown) [Compound 150] | 108% | 26.8% | 21.5% | 99.9% | – | – | –
N#Cc1c(N2CCOCC2)sc2c1C(c1c(F)cc(Cl)cc1F)CNC2=O (stereo not shown) [Compound 151] | 103% | 43.1% | 41% | 90% | – | – | –
O=C1N[C@@H](C(=O)NCCO)[C@H](c2ccc(Cl)cc2)c2cc(N3CCOCC3)sc21 [Compound 153] | – | – | 9.08% | 39.8% | 87.14% | 20.40% | –
CC(C)NC(=O)[C@@H]1NC(=O)c2sc(N3CCOCC3)cc2[C@H]1c1ccc(Cl)cc1 [Compound 162] | 70.6% | 7.94% | 3.59% | 41.8% | – | – | –
COC(=O)c1cc(C2CCNC(=O)c3sc(N4CCOCC4)nc32)ccc1Cl (stereo not shown) [Compound 174, methyl 2-chloro-5-[2-(morpholin-4-yl)-4-oxo-5,6,7,8-tetrahydro-4H-[1,3]thiazolo[5,4-c]azepin-8-yl]benzoate] | 82.5% | 4.56% | – | – | – | – | –
COCCNC(=O)[C@@H]1NC(=O)c2sc(N3CCOCC3)cc2[C@H]1c1ccc(Cl)cc1 [Compound 177] | 58.5% | 29.6% | – | – | – | – | –
Cc1cc(-c2nc3c(s2)C(=O)NCC3c2ccc3ccccc3c2)ccn1 (stereo not shown) [Compound 179] | 107% | 21.6% | – | – | – | – | –
COC(=O)c1[nH]c(=O)c2sc(N3CCOCC3)cc2c1-c1ccc(Cl)c(Cl)c1 [Compound 184, methyl 4-(3,4-dichlorophenyl)-2-(morpholin-4-yl)-7-oxo-6,7-dihydrothieno[2,3-c]pyridine-5-carboxylate] | 77.5% | 6.62% | – | – | – | – | –
N#Cc1c(N2CCOCC2)sc2c1C(c1ccc(Cl)c(Cl)c1)NC2=O (stereo not shown) [Compound 187] | 104% | 38.4% | – | – | – | – | –
O=C1NCC(c2ccc3ccncc3c2)c2nc(N3CCOCC3)sc21 (stereo not shown) [Compound 189] | 116% | 25.9% | – | – | – | – | –
Cc1cc(C2CNC(=O)c3sc(N4CCOCC4)cc32)ccc1Cl (stereo not shown) [Compound 194] | 113% | 38.6% | – | – | – | – | –
O=C1NCC=C(c2ccc3ccncc3c2)c2nc(N3CCOCC3)sc21 [Compound 195] | 62.5% | 16.5% | – | – | – | – | –

More lines, main results first:

inhibition at 1.11 µM (PI3Kbeta) | inhibition at 1.11 µM (PI3Kalpha) | inhibition at 1.11 µM (PI3Kgamma) | inhibition at 1.11 µM (PI3Kdelta) | PI3Kbeta % inh (PI3Kbeta) | PI3Kalpha % inh (PI3Kalpha) | Structure (SMILES) | other results
84.3% | 13.7% | – | – | – | – | C=CCC1(C(=O)O)NC(=O)c2sc(N3CCOCC3)cc2C1c1ccc(Cl)c(Cl)c1 (stereo not shown) [Compound 196, 5-allyl-4-(3,4-dichlorophenyl)-2-(morpholin-4-yl)-7-oxo-4,5,6,7-tetrahydrothieno[2,3-c]pyridine-5-carboxylic acid] | –
– | – | – | – | 115.55% | 65.98% | N#Cc1c(N2CCOCC2)sc2c1C(c1ccc(Cl)c(Cl)c1)CCNC2=O (stereo not shown) [Compound 199] | –
– | – | – | – | 53.94% | 48.20% | O=C1N[C@@H](C(=O)NCCCO)[C@H](c2ccc(Cl)cc2)c2cc(N3CCOCC3)sc21 [Compound 200] | –
– | 16.7% | – | – | 79.38% | – | O=C1NCCC(c2ccc(Cl)cc2)c2cc(N3CCOCC3)sc21 (stereo not shown) [Compound 201, 4-(4-chlorophenyl)-2-(morpholin-4-yl)-4,5,6,7-tetrahydro-8H-thieno[2,3-c]azepin-8-one] | –
– | – | – | – | 113.55% | 88.75% | O=C1N[C@@H](CO)CC(c2ccc3ccccc3c2)c2nc(N3CCOCC3)sc21 (stereo partly shown) [Compound 202] | –
– | – | – | – | 66.37% | 40.46% | CCNC(=O)[C@@H]1NC(=O)c2sc(N3CCOCC3)cc2[C@H]1c1ccc(Cl)cc1 [Compound 203] | –
– | – | – | – | 60.14% | 51.34% | O=C1N[C@@H](C(=O)NCCO)[C@H](c2ccc(Cl)cc2)c2cc(N3CCOCC3)sc21 [Compound 204] | –
– | – | – | – | 96.83% | 28.04% | Cc1cc(C2CNC(=O)c3sc(N4CCOCC4)cc32)ccc1Cl (stereo not shown) [Compound 205] | –
58.5% | 41.8% | – | – | – | – | CNC(=O)[C@@H]1NC(=O)c2sc(-c3ccncc3)cc2[C@H]1c1ccc(Cl)cc1 [Compound 206] | –
– | 42.9% | – | – | 62.94% | – | CNC(=O)[C@@H]1NC(=O)c2sc(C3=CCOCC3)cc2[C@H]1c1ccc(Cl)cc1 [Compound 207] | –
96.8% | 18.4% | – | – | – | – | O=C1NCC(c2ccc(Cl)c(Cl)c2)c2cc(N3CCOCC3)sc21 (stereo not shown) [Compound 208] | –
– | 20.5% | – | – | 62.33% | – | O=C1NCC(c2ccc(Cl)cc2)c2cc(N3CCOCC3)sc21 (stereo not shown) [Compound 211] | –
– | – | – | – | 65.59% | 54.25% | CNC(=O)[C@@H]1NC(=O)c2sc(N3CCOCC3)cc2[C@H]1c1ccc(Cl)cc1 [Compound 212] | –
99.3% | 5.63% | – | – | – | – | O=C(O)CN1CC(c2ccc(Cl)cc2)c2cc(N3CCOCC3)sc2C1=O (stereo not shown) [Compound 213, 2-(4-(4-chlorophenyl)-2-morpholino-7-oxo-4,5-dihydrothieno[2,3-c]pyridin-6(7H)-yl)acetic acid] | –
110% | 5.13% | – | – | – | – | NC(=O)CN1CC(c2ccc(Cl)cc2)c2cc(N3CCOCC3)sc2C1=O (stereo not shown) [Compound 214, 2-(4-(4-chlorophenyl)-2-morpholino-7-oxo-4,5-dihydrothieno[2,3-c]pyridin-6(7H)-yl)acetamide] | –
